Starred links: 1 amine or outer side, 2 acyl side, 3 side chain; linkers in the order of their positions; H or OH if unused. Positions of bridges follow the written chain, without caps; N, C: chain ends. Non-standard residues stand in square brackets, D forms with d. Residues, ends and D or L forms follow the SMILES beside them. Primed or numbered codes have the meaning given here. Chains are numbered I, II in the order given. No end group written: not given here. AO″ = AO: aminooxy residue, 2-amino-3-(2-(aminooxy)acetamido)propanoic acid (side chain carries R'-O-NH2), O=C(CON[*:3])NC[C@H](N[*:1])C(=O)[*:2]; X1 = O=C(NCCCOCCCCOCCCNC(=O)c1ccc(C=NOCC(=O)[*:2])cc1)c1ccc(C=NOCC(=O)[*:1])cc1; Dap = NC[C@H](N)C(=O)O
Legend:
[1] = test system: MDA231 (Human breast adenocarcinoma); test: Apoptosis (Caspase-3), MDA231 carcinoma line; format: cell-based; conditions: Cell line: MDA231
Method: (§1) Dimers of the present knottins with AO groups incorporated at different positions were prepared and conjugated with different linkages. There were tested for activity against carcinoma lines. As identified there, Dimer 1 is EETI 2.5F where the AO group was incorporated in place of Lys15, conjugated through the 17.3 Angstrom linker shown in FIG. 1B; Dimer 2 is EETI 2.5F, where the AO group was incorporated in place of Lys15, conjugated though the 68.5 Angstrom linker shown in FIG. 9. Dimer 3 is EETI 2.5F, where the AO group was incorporated at the C-terminus following residue 33, conjugated through a 17.3 Angstrom linker shown in FIG. 1B; Dimer 4 is EETI 2.5F, where the AO group was incorporated at the C-terminus following residue 33, conjugated through the 68.5 Angstrom linker shown in FIG. 9. […] Also, it was observed that the length of the linkage had only a minor effect on binding. Binding, of course, it correlated with the activity in proliferation and apoptosis.

[2] = test system: MDA231 (Human breast adenocarcinoma); test: Inhibition of proliferation, MDA231 carcinoma line; format: cell-based; conditions: for Proliferation: Cell line: MDA231; for inhibition of tumor cell proliferation, comparison between dimers, monomer and Cilengitide: Table 3 results
Method: as §1

U87MG cells [3] = format: cell-based, human; conditions: for EC50: U87MG cells on fibronectin coated plates, 1 h at 37° C., read-out: Adhesion EC50
Method: FIG. 3A is a graph measuring comparative inhibition of adhesion of U87MG cells treated with dimeric and monomeric 2.5F to fibronectin, a component of ECM. Fibronectin coated plates were incubated with U87MG cells with the indicated concentrations of peptides. Adherent cells remaining after several wash steps were quantified with crystal violet staining by absorbance at 600 nm. […] Values were normalized to negative control containing no competing peptides.
FIG. 7 is a graph measuring comparative inhibition of adhesion of U87MG cells treated with dimeric and monomeric 2.5F or Cilgenitide to fibronectin, a component of ECM. Fibronectin coated plates were incubated with U87MG cells with the indicated concentrations of peptides. Adherent cells remaining after several wash steps were quantified with crystal violet staining by absorbance at 600 nm. Values were normalized to negative control containing no competing peptides.
Varying concentrations of peptides were added to 4×10^4 cells in 100 μl of IBB, incubated for 1 h at 37° C., 5% CO2, and gently washed with Dulbecco's PBS (DPBS, Invitrogen). Remaining adherent cells were incubated with 100 μl of 0.2% crystal violet and 10% ethanol for 10 min at room temperature, washed in DPBS and solubilized with 100 μl/well of a 50:50 mixture of 100 mM sodium phosphate, pH 4.5 and ethanol for 10 min. The absorbance at 600 nm was measured using Synergy HT microplate reader (BioTek).

U87MG cells [4] = test: Cytotoxicity / inhibition of proliferation of U87MG cells (AlamarBlue); format: cell-based, human
Method: FIG. 4A is a bar graph showing time dependent cytotoxicity of U87MG cells after treatment with the indicated knottin mini-proteins. Cytotoxicity was monitored by incubating U87MG cells on culture plates with 500 nM of each knottin in 4% FBS media at 37° C. and 5% CO2 and measuring cell viability at 24, 48, and 72 h after the treatment using the AlamarBlue indicator dye.
FIG. 4B is a bar graph showing dose dependent cytotoxicity of U87MG cells assessed by treating with different concentrations of knottins for 72 h and measuring cell viability using the AlamarBlue indicator dye.
FIG. 8 is a bar graph showing dose dependent cytotoxicity of U87MG cells assessed by treating with different concentrations of dimeric or monomeric 2.5F or Cilgenitide for 72 h and measuring cell viability using the AlamarBlue indicator dye.

U87MG cells [5] = test: U87MG cell morphology after knottin treatment (microscope images); format: cell-based, human; conditions: 500 nM, 24 h, DMEM media with 4% FBS
Method: FIG. 3B is a panel of microscope images of the U87MG cells on culture plates after 24 h treatment with 500 nM of the indicated knottins.

[6] = test system: U87MG cells expressing αvβ3, αvβ5, and α5β1 integrins; test: Competition binding assay to U87MG cells (flow cytometry); parameters: species or system human; conditions: for IC50: 4° C. for 10 h, average of three experiments; for increase of apparent binding affinity of dimer compared to the monomer: from IC50 values
Method: FIG. 2B is a graph showing a competition assay of EETI-based integrin binding proteins 2.5F dimer and 2.5F monomer to U87MG cells, as measured by flow cytometry. Alexa488-labeled EETI 2.5F was used as a competitor. Monomeric EETI 2.5F with an introduced aminooxy residue is designated as 2.5F_AO.
FIG. 2C is a graph showing a competition assay of AgRP-based integrin binding proteins: dimeric 7C and monomeric 7C to U87MG cells, as measured by flow cytometry. Alexa488-labeled AgRP 7C was used as a competitor. Monomeric AgRP 7C with aminooxy residue is designated as Monomeric 7C_AO.
Alexa488-labeled EETI 2.5F was used as a competitor.
Competition binding assays were performed to measure the relative binding affinities of engineered knottins to U87MG cells expressing αvβ3, αvβ5, and α5β1 integrins (FIG. 2A, 2B, 2C). 2×10^5 U87MG cells were incubated at 4° C. for 10 h in integrin binding buffer (20 mM Tris pH 7.5, 1 mM MgCl2, 1 mM MnCl2, 2 mM CaCl2, 100 mM NaCl, and 0.1% BSA) and varying concentrations of the peptides with 0.25 nM of Alexa488-labeled EETI 2.5F as a competitor for dimeric and monomeric EETI 2.5F, and 5 nM of Alexa488-labeled AgRP 7C as a competitor for dimeric and monomeric AgRP 7C. Half-maximal inhibitory concentration (IC50) values were determined by nonlinear regression analysis using KaleidaGraph (Synergy Software), and are presented as the average of three separate experiments.

[7] = test system: SKOV 3 (Ovarian adenocarcinoma); test: Inhibition of proliferation, SKOV 3 carcinoma line; format: cell-based; conditions: Cell line: SKOV 3
Method: as §1

[8] = 0.25 nM Alexa488-labeled EETI 2.5F as competitor

Compound	Apoptosis (Caspase-3) [1]	Proliferation [2]	inhibition of U87MG cell adhesion to fibronectin (in words) (U87MG cells [3]; fibronectin-coated plates)	inhibition of U87MG cell proliferation (U87MG cells [4]; 10 nM, 72 hours) [%]	inhibition of U87MG cell proliferation (U87MG cells [4]; 100 nM, 72 hours) [%]	inhibition of U87MG cell proliferation (U87MG cells [4]; 500 nM, 24 h) [%]	inhibition of U87MG cell proliferation (U87MG cells [4]; 500 nM, 48 h) [%]	inhibition of U87MG cell proliferation (U87MG cells [4]; 500 nM, 72 h) [%]	inhibition of U87MG cell proliferation (U87MG cells [4]; 1000 nM, 72 hours) [%]	U87MG cell morphology (U87MG cells [5])	IC50 [6, 8] [nM]	increase of apparent binding affinity of dimer compared to the monomer [6]	inhibition of tumor cell proliferation, comparison between dimers, monomer and Cilengitide [2]	Proliferation [7]	EC50 (U87MG cells [3]) [nM]	also measured
CC(C)[C@H]1C(=O)N[C@@H](CCCN=C(N)N)C(=O)NCC(=O)N[C@@H](CC(=O)O)C(=O)N[C@H](Cc2ccccc2)C(=O)N1C [Cilengitide, reference compound]	Moderate induction	Weak inhibition	does not inhibit	–	–	–	–	–	–	–	–	–	–	–	–	–
I: GCPRPRGDNPPLTC[Dap]QDSDCLAGCVCGPNGFCG / II: GCPRPRGDNPPLTC[Dap]QDSDCLAGCVCGPNGFCG (disulfide I:2-I:24, I:14-I:26, I:20-I:32, II:2-II:24, II:14-II:26, II:20-II:32; linker I:15-II:15 via X1) [EETI 2.5F Dimer]	Strong induction	Strong inhibition	able to inhibit	28	52	53	68	69	70	rounded morphology	0.036 ± 0.002	approximately 46 fold	more strongly inhibited tumor cell proliferation compared to Dimers 3 and 4	Strong inhibition	8 ± 2	more potent at inhibiting cell proliferation compared to Cilengitide (U87MG cells [4]; U87MG cells, 72 h): 100 fold; more effective in preventing U87MG cell adhesion compared to the monomer (U87MG cells [3]; fibronectin-coated plates): 100 fold
2.5F Dimer2: EETI 2.5F, AO in place of Lys15, conjugated though the 68.5 Angstrom linker shown in FIG. 9 (GCPRPRGDNPPLTC[AO″]QDSDCLAGCVCGPNGFCG; ends and bridges not checked; also: dimer (Dimer2) conjugated through 68.5 Angstrom linker via AO15)	–	Strong inhibition	–	–	–	–	–	–	–	–	–	–	more strongly inhibited tumor cell proliferation compared to Dimers 3 and 4	Strong inhibition	–	–
scrambled EETI FNRDG monomer [FNRDG_AO, reference compound]	–	–	not able to inhibit cell adhesion	–	–	–	–	–	–	–	–	–	–	–	–	inhibition of U87MG cell proliferation (in words) (U87MG cells [4]; scrambled controls): did not induce significant inhibition; binding (in words) ([6]; scrambled controls): negligible binding
I: GCVRLHESCLGQQVPCCDPAATCYCYGRGDNDLRCYC[Dap] / II: GCVRLHESCLGQQVPCCDPAATCYCYGRGDNDLRCYC[Dap] (disulfide I:2-I:17, I:9-I:23, I:16-I:37, I:25-I:35, II:2-II:17, II:9-II:23, II:16-II:37, II:25-II:35; linker I:38-II:38 via X1) [AgRP 7C Dimer]	–	–	–	–	–	–	–	–	–	–	–	~4 fold	–	–	–	IC50 ([6]; 5 nM Alexa488-labeled AgRP 7C as competitor): 3.2 ± 0.6 nM
CC(C)C[C@@H]1NC(=O)[C@@H]2CSSC[C@@H](C(=O)NCC(=O)O)NC(=O)[C@H](Cc3ccccc3)NC(=O)CNC(=O)[C@H](CC(N)=O)NC(=O)[C@@H]3CCCN3C(=O)CNC(=O)[C@@H]3CSSC[C@H](NC(=O)[C@H]([C@@H](C)O)NC(=O)[C@H](CC(C)C)NC(=O)[C@@H]4CCCN4C(=O)[C@@H]4CCCN4C(=O)[C@H](CC(N)=O)NC(=O)[C@H](CC(=O)O)NC(=O)CNC(=O)[C@H](CCCNC(=N)N)NC(=O)[C@@H]4CCCN4C(=O)[C@H](CCCNC(=N)N)NC(=O)[C@@H]4CCCN4C(=O)[C@@H](NC(=O)CN)CSSC[C@H](NC(=O)CNC(=O)[C@H](C)NC1=O)C(=O)N[C@@H](C(C)C)C(=O)N3)C(=O)N[C@@H](CCCCN)C(=O)N[C@@H](CCC(N)=O)C(=O)N[C@@H](CC(=O)O)C(=O)N[C@@H](CO)C(=O)N[C@@H](CC(=O)O)C(=O)N2 [EETI 2.5F] (H-GCPRPRGDNPPLTCKQDSDCLAGCVCGPNGFCG-OH; disulfide 2-24, 14-26, 20-32)	Moderate induction	Weak inhibition	able to inhibit	15	30	37	44	50	60	rounded morphology	1.64 ± 0.03	–	–	–	180 ± 14	–

— US9587001B2, “Conjugated knottin mini-proteins containing non-natural amino acids” (priority 2012, dated 2017)
